Experimental data published in ChEMBL document CHEMBL5338706, “Discovery of a potent and selective proteolysis targeting chimera (PROTAC) degrader of NSD3 histone methyltransferase” (Eur J Med Chem, 2022).
Activity calls are given as the source filed them. No cut-off for these calls is given here.

Tests used:
[1] = target: T1, Histone-lysine N-methyltransferase NSD3 (Homo sapiens) (UniProt Q9BZ95); assay: Induction of NSD3 degradation in human NCI-H1703 cells at 5 uM measured after 48 hrs by Western blot analysis relative to control; type: cell-based
T1 sequence (whole entry): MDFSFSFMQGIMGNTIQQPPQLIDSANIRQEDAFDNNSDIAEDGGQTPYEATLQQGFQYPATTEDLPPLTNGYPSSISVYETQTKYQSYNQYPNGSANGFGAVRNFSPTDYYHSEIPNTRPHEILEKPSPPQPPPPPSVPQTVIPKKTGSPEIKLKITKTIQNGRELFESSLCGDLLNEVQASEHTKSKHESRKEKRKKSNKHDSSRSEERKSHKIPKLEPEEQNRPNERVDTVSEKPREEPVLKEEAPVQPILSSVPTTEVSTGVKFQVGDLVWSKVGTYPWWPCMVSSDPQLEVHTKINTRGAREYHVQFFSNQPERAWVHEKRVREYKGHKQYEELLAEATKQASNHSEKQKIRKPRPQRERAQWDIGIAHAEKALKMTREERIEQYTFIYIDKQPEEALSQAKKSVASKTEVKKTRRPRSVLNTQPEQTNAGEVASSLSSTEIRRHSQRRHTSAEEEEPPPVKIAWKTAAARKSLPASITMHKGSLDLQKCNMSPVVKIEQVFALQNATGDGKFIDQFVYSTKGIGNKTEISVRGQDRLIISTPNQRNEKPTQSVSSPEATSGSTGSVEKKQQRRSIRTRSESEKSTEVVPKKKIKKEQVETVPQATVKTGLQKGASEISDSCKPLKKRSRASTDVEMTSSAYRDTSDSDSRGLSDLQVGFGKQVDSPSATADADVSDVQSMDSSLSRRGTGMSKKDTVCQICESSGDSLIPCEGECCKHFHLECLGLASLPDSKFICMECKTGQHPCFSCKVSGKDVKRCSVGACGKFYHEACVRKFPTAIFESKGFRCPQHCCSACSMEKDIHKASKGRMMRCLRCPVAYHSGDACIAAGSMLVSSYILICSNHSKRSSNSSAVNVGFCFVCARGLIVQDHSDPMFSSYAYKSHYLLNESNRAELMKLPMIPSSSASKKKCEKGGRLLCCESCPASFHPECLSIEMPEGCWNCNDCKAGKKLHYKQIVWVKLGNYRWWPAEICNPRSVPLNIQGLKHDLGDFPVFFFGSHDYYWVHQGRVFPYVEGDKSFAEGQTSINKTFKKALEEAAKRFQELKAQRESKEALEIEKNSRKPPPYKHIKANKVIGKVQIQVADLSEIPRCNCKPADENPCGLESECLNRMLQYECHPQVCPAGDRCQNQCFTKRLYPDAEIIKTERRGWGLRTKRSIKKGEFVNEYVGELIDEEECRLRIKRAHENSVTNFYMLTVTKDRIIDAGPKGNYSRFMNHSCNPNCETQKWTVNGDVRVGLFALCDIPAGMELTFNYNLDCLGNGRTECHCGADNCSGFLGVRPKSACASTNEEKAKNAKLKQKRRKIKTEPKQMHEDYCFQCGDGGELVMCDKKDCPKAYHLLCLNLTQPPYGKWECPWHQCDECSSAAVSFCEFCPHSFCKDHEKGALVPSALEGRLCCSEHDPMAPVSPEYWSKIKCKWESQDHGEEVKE

[2] = tested on: NCI-H1703; assay: Induction of apoptosis in human NCI-H1703 cells assessed as late apoptotic cells at 5 uM measured after 72 hrs by PI/Annexin-V staining based flow cytometry analysis (reference value: 3.00% ); type: functional
[3] = tested on: NCI-H1703; assay: Induction of apoptosis in human NCI-H1703 cells assessed as necrotic cells at 3 uM measured after 72 hrs by PI/Annexin-V staining based flow cytometry analysis (reference value: 2.80% ); type: functional
[4] = tested on: NCI-H1703; assay: Downregulation of ALDH1A1 in human NCI-H1703 cells at […] measured after 72 hrs by RNA sequencing assay; type: functional, cell-based; conditions: dose 7.5 µM
[5] = target: T2, Histone-lysine N-methyltransferase NSD2 (Homo sapiens) (UniProt O96028); assay: Induction of NSD2 degradation in human NCI-H1703 cells at 3 to […] incubated for 72 hrs by Western blot analysis; type: cell-based; conditions: dose 3-7.5 µM
T2 sequence (whole entry): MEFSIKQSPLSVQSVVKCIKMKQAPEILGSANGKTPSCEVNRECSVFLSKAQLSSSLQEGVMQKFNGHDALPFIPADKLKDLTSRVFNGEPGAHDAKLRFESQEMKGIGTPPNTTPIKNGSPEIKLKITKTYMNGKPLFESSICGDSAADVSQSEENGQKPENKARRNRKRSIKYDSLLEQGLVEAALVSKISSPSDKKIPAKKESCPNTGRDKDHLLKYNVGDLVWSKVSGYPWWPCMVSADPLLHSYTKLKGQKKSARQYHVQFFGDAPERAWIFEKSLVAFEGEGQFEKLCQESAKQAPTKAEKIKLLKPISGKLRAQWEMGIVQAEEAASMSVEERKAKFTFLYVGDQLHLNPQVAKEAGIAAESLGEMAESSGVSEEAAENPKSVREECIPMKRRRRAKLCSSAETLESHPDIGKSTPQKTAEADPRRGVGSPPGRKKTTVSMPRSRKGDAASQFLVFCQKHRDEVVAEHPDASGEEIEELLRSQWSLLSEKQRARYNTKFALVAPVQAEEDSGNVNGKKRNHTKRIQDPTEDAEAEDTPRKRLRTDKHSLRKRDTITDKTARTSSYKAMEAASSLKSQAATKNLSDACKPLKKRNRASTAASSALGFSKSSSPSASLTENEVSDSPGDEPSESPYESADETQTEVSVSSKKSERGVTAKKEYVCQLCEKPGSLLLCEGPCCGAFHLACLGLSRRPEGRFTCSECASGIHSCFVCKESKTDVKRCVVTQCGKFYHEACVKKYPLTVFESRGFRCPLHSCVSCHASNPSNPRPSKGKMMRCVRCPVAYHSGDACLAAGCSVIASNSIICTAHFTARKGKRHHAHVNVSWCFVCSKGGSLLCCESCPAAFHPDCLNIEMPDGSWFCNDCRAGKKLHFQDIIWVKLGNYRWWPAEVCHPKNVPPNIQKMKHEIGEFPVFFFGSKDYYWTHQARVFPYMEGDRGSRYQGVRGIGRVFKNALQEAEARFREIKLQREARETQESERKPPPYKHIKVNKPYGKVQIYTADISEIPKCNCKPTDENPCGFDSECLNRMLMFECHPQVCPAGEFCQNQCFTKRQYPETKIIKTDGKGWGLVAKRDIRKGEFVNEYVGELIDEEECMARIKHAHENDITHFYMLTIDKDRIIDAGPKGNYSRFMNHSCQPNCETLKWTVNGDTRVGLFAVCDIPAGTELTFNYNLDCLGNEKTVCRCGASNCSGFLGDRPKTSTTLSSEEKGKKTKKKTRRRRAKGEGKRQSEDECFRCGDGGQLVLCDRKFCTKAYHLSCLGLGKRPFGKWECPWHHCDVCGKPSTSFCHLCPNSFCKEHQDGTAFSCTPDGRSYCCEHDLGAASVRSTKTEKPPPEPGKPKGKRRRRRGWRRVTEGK

## Cc1cc(CNCCCCCCCCCCC(=O)N[C@H](C(=O)N2C[C@H](O)C[C@H]2C(=O)N[C@@H](C)c2ccc(-c3scnc3C)cc2)C(C)(C)C)cc(C)c1-c1ncn(C)c1-c1ccnc2cc(F)ccc12
[1]
  Activity: 60%
[2]
  Activity: 6.08%
[3]
  Activity: 1.34%
[4]
  Activity: Active
[5]
  Activity: inactive
